{
  "source": "paper PMC11475281",
  "about": "“A Novel Liver Cancer-Selective Histone Deacetylase Inhibitor Is Effective against Hepatocellular Carcinoma and Induces Durable Responses with Immunotherapy” (ACS Pharmacology & Translational Science, 2024)",
  "key": {"cytochrome P450": {"system": "cytochrome P450", "type": "in vitro ADME", "details": "maximum tested concentration of 100 μM"}, "hERG": {"biological_target": "hERG (Homo sapiens, UniProt Q12809)", "sequence (Q12809 whole entry)": "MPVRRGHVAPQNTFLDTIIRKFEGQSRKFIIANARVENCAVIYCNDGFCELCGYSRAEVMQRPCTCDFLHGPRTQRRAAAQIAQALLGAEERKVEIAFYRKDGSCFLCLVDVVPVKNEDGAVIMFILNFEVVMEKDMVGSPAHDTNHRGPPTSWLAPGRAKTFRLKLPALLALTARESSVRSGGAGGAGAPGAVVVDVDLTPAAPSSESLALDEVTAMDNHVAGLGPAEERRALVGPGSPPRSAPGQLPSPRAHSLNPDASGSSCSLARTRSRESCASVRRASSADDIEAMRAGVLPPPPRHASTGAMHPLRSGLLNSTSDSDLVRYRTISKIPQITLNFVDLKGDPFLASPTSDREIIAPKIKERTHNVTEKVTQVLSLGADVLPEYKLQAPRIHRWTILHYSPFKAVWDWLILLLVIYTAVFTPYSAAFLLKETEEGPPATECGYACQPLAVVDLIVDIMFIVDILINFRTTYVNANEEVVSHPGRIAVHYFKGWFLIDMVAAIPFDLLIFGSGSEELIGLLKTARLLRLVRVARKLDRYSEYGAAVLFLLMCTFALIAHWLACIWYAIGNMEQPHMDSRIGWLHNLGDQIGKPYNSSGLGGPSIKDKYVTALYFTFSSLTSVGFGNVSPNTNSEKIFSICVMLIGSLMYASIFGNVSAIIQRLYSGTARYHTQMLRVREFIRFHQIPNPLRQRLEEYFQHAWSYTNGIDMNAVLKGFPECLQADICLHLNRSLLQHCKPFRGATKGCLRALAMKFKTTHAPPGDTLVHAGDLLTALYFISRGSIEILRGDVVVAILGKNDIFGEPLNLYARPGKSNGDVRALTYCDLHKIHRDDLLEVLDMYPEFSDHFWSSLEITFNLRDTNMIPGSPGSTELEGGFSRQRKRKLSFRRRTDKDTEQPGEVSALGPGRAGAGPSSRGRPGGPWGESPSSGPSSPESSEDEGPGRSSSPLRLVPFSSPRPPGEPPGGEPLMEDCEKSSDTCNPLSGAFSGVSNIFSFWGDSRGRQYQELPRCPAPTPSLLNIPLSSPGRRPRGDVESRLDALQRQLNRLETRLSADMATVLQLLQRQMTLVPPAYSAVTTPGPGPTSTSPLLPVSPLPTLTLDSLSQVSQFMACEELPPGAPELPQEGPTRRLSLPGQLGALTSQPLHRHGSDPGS", "assay": "In vitro hERG inhibition assay", "details": "maximum tested concentration of 100 μM"}, "[1]": {"assay": "Tissue distribution by LC-MS", "type": "in vivo", "details": "both sexes, healthy mice, i.p. 25 mg/kg", "method": "To determine if liver tissue accumulation plays a role in the observed in vivo efficacy of STR-V-53, we used LC-MS to evaluate the distribution of STR-V-53 in selected tissues (liver and lungs) and plasma. We analyzed samples from healthy mice exposed to STR-V-53 (i.p. injection) at 25 mg/kg for 8 h. […] The average level of STR-V-53 in circulation in the plasma of healthy mice was ∼ […] 8 h postinjection. In contrast, the level of STR-V-53 in the liver was approximately 4 times its plasma level (Figure 5d). […]\nfor another 48 h. Cells were washed with cold 1x PBS solution twice and trypsinized.\nSubsequently, cells were collected using 5 mL 1x PBS buffer and fixed overnight at -20 °C using 70% ethanol. Cells were centrifuged in 1x PBS on day 2 at 4 °C with a spin speed of 3,000g, re-suspended in 1x PBS, and centrifuged again under the same condition. The supernatant was removed, and the cell pellets were re-suspended with 500 µL of 200 ug/mL RNase for 30 min.\nThen cells were treated with another 500 µL of 100 ug/mL PI staining at room temperature for 30 min. The cell cycle was analyzed with BD FACS Aria Illu analyzer, and the data were […]\nThe stability of STR-V-53 in murine and human plasmas was determined through a contract agreement with Cyprotex, an Evotec Company (https://www.cyprotex.com)\nMaximum tolerated dose determination\nC57BL/6 mice, 6–8 weeks old, 3 males and 3 females per treatment group, were injected […]\ndays in Kolliphor/DMA/water vehicle. We measured body weight and monitored daily food consumption, overall health, and mortality. On the eighth day, mice were sacrificed by cervical dislocation, and organs were harvested and frozen at −80 ◦C.\nTissue distribution studies\nC57Bl/6 mice, 6–8 weeks old, 3 males and 3 females per treatment group, were injected […]\nthe injection, organs were harvested and frozen at −80 °C for subsequent quantification by LC-"}, "Hep-G2 cells": {"system": "Hep-G2 cells", "assay": "RNA-seq differential gene expression vs DMSO control", "type": "cell-based, human", "method": "To obtain transcriptome level evidence that may shed light on the HCC-selectivity and/or the enhanced potency of the combination of STR-V-53 with anti-PD-1 antibody, we performed RNA sequencing (RNA-seq) analysis on STR-V-53-treated Hep-G2 cells, incubated at IC50 and 2× IC50 for 24 h, relative to the untreated (DMSO) control. We first conducted gene set enrichment analysis (GSEA) using hallmark and gene ontology biological process (GOBP) gene sets to analyze the effect of STR-V-53 vs DMSO-treated control on the Hep-G2 transcriptome.[42],[43] […] Negative enrichment of the G2 M checkpoint pathway supports the finding that STR-V-53 induced S phase arrest in Hep-G2 cells (see Figure 4).\nSubsequently, we focused our analysis on specific genes of interest, including gene signatures for HDAC inhibition and immune response pathways. […]\nand allowed to grow for 48 hours.\nRCF, with this washing step repeated twice. Next, using RNeasy Plus Mini Kit and Qiagen QIAcube […]\ndetermined using a DeNovix spectrophotometer. Subsequently, quality control of the RNA samples was […]\n(base call error rate of […]).\nFASTQ files of samples were analyzed through the RNA-seq pipeline provided by the Gryder lab1. Reads were aligned to hg38 using STAR version 2.5.3a, and gene expression was calculated as Transcripts per Million mapped reads (TPM) using RSEM version 1.3.3 and filtered for coding genes. Differentially expressed genes lists were generated for each sample by calculating log2 fold change of the averaged sample TPM versus the averaged DMSO-treated control cells TPM and filtering for genes with |log2 fold change| > -1 and false discovery rate < 0.25. Hallmark2 and gene ontology biological processes (GOBP)3 gene set enrichment analysis (GSEA) was performed on the differentially expressed gene lists using the GSEA software (parameters: Run GSEAPreranked, Collapse/Remap- No_Collapse)4. GSEA results were interpreted and visualized using scripts provided by the Gryder lab1.Volcano plots were generated using DESeq2v1.41.1 and visualized with the ggplot2 R packages5,6. […]"}, "HDAC3/ NCOR2": {"biological_target": "HDAC3/ NCOR2 (Homo sapiens, UniProt O15379)", "sequence (O15379 whole entry, canonical isoform)": "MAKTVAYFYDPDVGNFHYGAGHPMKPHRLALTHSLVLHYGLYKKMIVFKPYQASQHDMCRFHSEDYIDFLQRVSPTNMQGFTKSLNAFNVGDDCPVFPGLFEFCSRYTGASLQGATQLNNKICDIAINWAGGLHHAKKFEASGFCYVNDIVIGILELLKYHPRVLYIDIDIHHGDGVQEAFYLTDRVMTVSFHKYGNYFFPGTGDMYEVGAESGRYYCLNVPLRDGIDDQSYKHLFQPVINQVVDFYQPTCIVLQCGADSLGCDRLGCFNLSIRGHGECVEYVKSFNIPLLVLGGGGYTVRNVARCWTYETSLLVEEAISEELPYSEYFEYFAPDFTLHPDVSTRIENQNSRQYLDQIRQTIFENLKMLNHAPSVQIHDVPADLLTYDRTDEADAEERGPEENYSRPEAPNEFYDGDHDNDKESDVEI", "sequence (Q9Y618 395-489 partner limits assumed)": "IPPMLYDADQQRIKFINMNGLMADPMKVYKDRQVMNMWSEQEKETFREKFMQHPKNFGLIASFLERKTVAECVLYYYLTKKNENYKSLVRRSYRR", "assay": "HDAC isoform inhibition (BPS Bioscience)"}},
  "data": [
    {"smiles": "O=C(CCCCCCn1cc(-c2ccc(O[C@H]3O[C@H](CO)[C@@H](O)[C@H](O)[C@H]3O)cc2)nn1)NO", "note": "[STR-V-53]", "values": [
      {"measurement": "Cytochrome P450 inhibition", "setting": "cytochrome P450", "result": "no inhibition"},
      {"measurement": "hERG inhibition", "setting": "hERG", "result": "no inhibition"},
      {"measurement": "Kp at 8 h", "setting": "[1]; C57Bl/6, mouse, liver (relative to plasma), ip, 8 h, read-out: Level in the liver relative to plasma level", "result": "~4"},
      {"measurement": "concentration at 8 h", "setting": "[1]; C57Bl/6, mouse, plasma, ip, 8 h postinjection, read-out: Average level in plasma", "result": "~0.01", "unit": "ng/mL"},
      {"measurement": "Level in the lungs", "setting": "[1]; 8 h", "result": "below the detection limit"},
      {"measurement": "ANP32B log2 fold change", "setting": "Hep-G2 cells; 2× IC50 (20 μM), 24 h", "result": "−2.3"},
      {"measurement": "CCL16 log2 fold change", "setting": "Hep-G2 cells; 2× IC50 (20 μM), 24 h", "result": "−1.8"},
      {"measurement": "CCL20 log2 fold change", "setting": "Hep-G2 cells; 2× IC50 (20 μM), 24 h", "result": 0.9},
      {"measurement": "CCL25 log2 fold change", "setting": "Hep-G2 cells; 2× IC50 (20 μM), 24 h", "result": 1.2},
      {"measurement": "CCL26 log2 fold change", "setting": "Hep-G2 cells; 2× IC50 (20 μM), 24 h", "result": 2.9},
      {"measurement": "CDKN1A (p21) log2 fold change", "setting": "Hep-G2 cells; 2× IC50 (20 μM), 24 h", "result": 3.3},
      {"measurement": "CX3CL1 log2 fold change", "setting": "Hep-G2 cells; 2× IC50 (20 μM), 24 h", "result": "−1.7"},
      {"measurement": "CXCL8 log2 fold change", "setting": "Hep-G2 cells; 2× IC50 (20 μM), 24 h", "result": "−2.0"},
      {"measurement": "CXCL11 log2 fold change", "setting": "Hep-G2 cells; 2× IC50 (20 μM), 24 h", "result": 1.3},
      {"measurement": "DKK-1 log2 fold change", "setting": "Hep-G2 cells; 2× IC50 (20 μM), 24 h", "result": 6.2},
      {"measurement": "MT1X log2 fold change", "setting": "Hep-G2 cells; 2× IC50 (20 μM), 24 h", "result": 3.4},
      {"measurement": "PDCD1 log2 fold change", "setting": "Hep-G2 cells; 2× IC50 (20 μM), 24 h", "result": 3.0},
      {"measurement": "TUBA1A log2 fold change", "setting": "Hep-G2 cells; 2× IC50 (20 μM), 24 h", "result": 5.4},
      {"measurement": "TYMS log2 fold change", "setting": "Hep-G2 cells; 2× IC50 (20 μM), 24 h", "result": "−3.6"},
      {"measurement": "Expression of MHC (HLA) complex, CD8+, and PD-1 (PDCD1) /PD-L1 (CD274) genes", "setting": "Hep-G2 cells; Hep-G2, RNA-seq, 24 h", "result": "upregulates"},
      {"measurement": "Expression of GLUTs 1, 2, 9, and 14", "setting": "Hep-G2 cells; Hep-G2, within 24 h of uptake", "result": "downregulation"},
      {"measurement": "Expression of GLUTs 3, 4, 6, and 12", "setting": "Hep-G2 cells; Hep-G2, within 24 h of uptake", "result": "upregulation"},
      {"measurement": "ANP32B log2 fold change", "setting": "Hep-G2 cells; IC50 (10 μM), 24 h", "result": "−1.8"},
      {"measurement": "CCL16 log2 fold change", "setting": "Hep-G2 cells; IC50 (10 μM), 24 h", "result": "−1.0"},
      {"measurement": "CCL20 log2 fold change", "setting": "Hep-G2 cells; IC50 (10 μM), 24 h", "result": 1.9},
      {"measurement": "CCL25 log2 fold change", "setting": "Hep-G2 cells; IC50 (10 μM), 24 h", "result": 0.9},
      {"measurement": "CCL26 log2 fold change", "setting": "Hep-G2 cells; IC50 (10 μM), 24 h", "result": 2.1},
      {"measurement": "CDKN1A (p21) log2 fold change", "setting": "Hep-G2 cells; IC50 (10 μM), 24 h", "result": 3.1},
      {"measurement": "CX3CL1 log2 fold change", "setting": "Hep-G2 cells; IC50 (10 μM), 24 h", "result": "−1.5"},
      {"measurement": "CXCL8 log2 fold change", "setting": "Hep-G2 cells; IC50 (10 μM), 24 h", "result": "−1.6"},
      {"measurement": "CXCL11 log2 fold change", "setting": "Hep-G2 cells; IC50 (10 μM), 24 h", "result": 1.1},
      {"measurement": "DKK-1 log2 fold change", "setting": "Hep-G2 cells; IC50 (10 μM), 24 h", "result": 6.5},
      {"measurement": "MT1X log2 fold change", "setting": "Hep-G2 cells; IC50 (10 μM), 24 h", "result": 2.9},
      {"measurement": "PDCD1 log2 fold change", "setting": "Hep-G2 cells; IC50 (10 μM), 24 h", "result": 2.1},
      {"measurement": "TUBA1A log2 fold change", "setting": "Hep-G2 cells; IC50 (10 μM), 24 h", "result": 4.7},
      {"measurement": "TYMS log2 fold change", "setting": "Hep-G2 cells; IC50 (10 μM), 24 h", "result": "−3.2"},
      {"measurement": "IC50", "setting": "HDAC3/ NCOR2", "result": 21, "unit": "nM"}
    ]}
  ]
}
